Measured values published in US6465655B1, “Antibody to and assay for peptide linked-pyridinoline as indicator of bone resorption level” (Serex, Inc., priority 1997, dated 2002).

System: Serex 51A93
Assay: ELISA plate inhibition studies of Serex 51A93 by calibrators (Osteomark BCE, Metra free pyridinoline)
Assay type: binding
Experimental: The immunoreactivities of 51A93 and 1H11 with the calibrators and ELISA plates in the Osteomark kit and Pyrilinks Metra kit were compared. Two studies were carried out using ELISA plate assays.
In the first study, BCE calibrators from the Osteomark Kit and free pyridinoline (Pyd) from Metra were tested at different concentrations to see if either of them inhibits 51A93. Abbreviations are BCE, bone collagen equivalents; %Bo, percent bound at 0 concentration of analyte (as analyte in sample binds to antibody, the percent Bo decreases).

## N[C@@H](CC[C@@H](O)C[n+]1cc(O)c(C[C@H](N)C(=O)O)c(CC[C@H](N)C(=O)O)c1)C(=O)[O-] [Pyd, pyridinoline]
Pyd 0.001 mg/ml
  % B0: 87%
  A 450: 1,302
Pyd 0.01 mg/ml
  % B0: 85%
  A 450: 1,275
Pyd 0.1 mg/ml
  % B0: 89%
  A 450: 1,327
Pyd 1 mg/ml
  % B0: 83%
  A 450: 1,249
Even at high levels
  inhibition of Mab 51A93 by calibrator: slightly inhibited
